The source of these data is patent US10428081B2, “EGFR inhibitor, preparation method and use thereof” (Shanghai Hansoh Biomedical Co., Ltd., priority 2014, dated 2019).

The target of assay [1] is exon 20 T790M mutant-type EGFR enzyme (Homo sapiens, UniProt P00533, T790M). Put plainly: Enzymologic experiment of T790M mutant-type EGFR (TR-FRET). The conditions noted are these: for IC50: T790M EGFR enzyme, TR-FRET, ATP 1 to 10 uM; for Selectivity of wild-type/mutant-type: ratio WT IC50 / T790M IC50, enzyme. It is filed as biochemical. How it is done: (§1) 2) 1 to 5 μL of diluted solution in gradient of the compound was added.
(§2) 3) The mixture was incubated for 10 minutes at room temperature.
(§3) 6) 5 μL of EDTA stop solution was added to terminate the reaction for 5 minutes.
7) […] of a test solution containing the labeled antibody was added, and the mixture was incubated at room temperature for 1 hour.
9) The inhibition rates were calculated according to the fluorescence signal values.
(§4) 10) The IC50 of the compound was obtained by curve fitting according to the inhibition rates at different concentrations.
(In general: Time-resolved FRET reads energy transfer from a long-lived donor to a nearby acceptor.)

Assay [2] concerns NCI-H1975 cells. Put plainly: Inhibition of NCI-H1975 cell proliferation (CellTiter-Glo). It is filed as cell-based. The conditions noted are these: Homo sapiens, NCI-H1975, 72 h, NCI-H1975 cell proliferation, 72 hours, CellTiter-Glo; read-out: EGFR IC50 (nM) H1975. How it is done:
3. Experiment on the Inhibition of NCI-H1975 Cell Proliferation
In this experiment, the inhibitory effect of the compounds on NCI-H1975 cell proliferation was tested by a CellTiter-Glo method, and the half maximal inhibitory concentration (IC50) of the compounds on the activity of cell proliferation was determined.
The culture plate was incubated in an incubator for 16 to 24 hours (37° C., 5% CO2).
2) Different concentrations of the test compound in a gradient dilution were added to the cells in the culture plate. The culture plate was incubated in an incubator for 72 hours (37° C., 5% CO2).
3) 50 to 100 μL of CellTiter-Glo reagent was added to each well. Then, the culture plate was shaken for 10 minutes, and left to stand at room temperature for 10 minutes.
4) The chemiluminescence signal values of each plate were determined by a microplate reader.
5) The inhibition rates were calculated according to the chemiluminescence signal values.
6) The IC50 of the compound was obtained by curve fitting according to the inhibition rates at different concentrations.
On the technique in general: In ATP-based viability assays light output follows the ATP content of the culture.

Assay [3] concerns the target wild-type EGFR enzyme (Homo sapiens, UniProt P00533). In words: Enzymologic experiment of wild-type (WT) EGFR (TR-FRET). It is filed as biochemical. The following applies: ATP 0.1 to 5 uM. As to the method:
2. Enzymologic Experiment of Wild-Type (WT) EGFR
In this experiment, the inhibitory effect of compounds on wild-type EGFR enzyme was tested by a fluorescence resonance energy transfer (TR-FRET) method, and the half maximal inhibitory concentration IC50 of the compounds on enzymatic activity was determined.
1) 1 to 5 μL of wild-type EGFR enzyme solution was added to a 384-well plate, and the final concentration of the enzyme was 0.1 to 1 nM.
as §1, §2, §3
7) 5 μL of a test solution containing the labeled antibody was added, and the mixture was incubated at room temperature for 1 hour.
9) The inhibition rates were calculated from the fluorescence signal values.
as §4

As a reminder, the IC50 is the point on the concentration scale where inhibition reaches its midpoint.

Chain of wild-type EGFR enzyme (P00533 25-1210): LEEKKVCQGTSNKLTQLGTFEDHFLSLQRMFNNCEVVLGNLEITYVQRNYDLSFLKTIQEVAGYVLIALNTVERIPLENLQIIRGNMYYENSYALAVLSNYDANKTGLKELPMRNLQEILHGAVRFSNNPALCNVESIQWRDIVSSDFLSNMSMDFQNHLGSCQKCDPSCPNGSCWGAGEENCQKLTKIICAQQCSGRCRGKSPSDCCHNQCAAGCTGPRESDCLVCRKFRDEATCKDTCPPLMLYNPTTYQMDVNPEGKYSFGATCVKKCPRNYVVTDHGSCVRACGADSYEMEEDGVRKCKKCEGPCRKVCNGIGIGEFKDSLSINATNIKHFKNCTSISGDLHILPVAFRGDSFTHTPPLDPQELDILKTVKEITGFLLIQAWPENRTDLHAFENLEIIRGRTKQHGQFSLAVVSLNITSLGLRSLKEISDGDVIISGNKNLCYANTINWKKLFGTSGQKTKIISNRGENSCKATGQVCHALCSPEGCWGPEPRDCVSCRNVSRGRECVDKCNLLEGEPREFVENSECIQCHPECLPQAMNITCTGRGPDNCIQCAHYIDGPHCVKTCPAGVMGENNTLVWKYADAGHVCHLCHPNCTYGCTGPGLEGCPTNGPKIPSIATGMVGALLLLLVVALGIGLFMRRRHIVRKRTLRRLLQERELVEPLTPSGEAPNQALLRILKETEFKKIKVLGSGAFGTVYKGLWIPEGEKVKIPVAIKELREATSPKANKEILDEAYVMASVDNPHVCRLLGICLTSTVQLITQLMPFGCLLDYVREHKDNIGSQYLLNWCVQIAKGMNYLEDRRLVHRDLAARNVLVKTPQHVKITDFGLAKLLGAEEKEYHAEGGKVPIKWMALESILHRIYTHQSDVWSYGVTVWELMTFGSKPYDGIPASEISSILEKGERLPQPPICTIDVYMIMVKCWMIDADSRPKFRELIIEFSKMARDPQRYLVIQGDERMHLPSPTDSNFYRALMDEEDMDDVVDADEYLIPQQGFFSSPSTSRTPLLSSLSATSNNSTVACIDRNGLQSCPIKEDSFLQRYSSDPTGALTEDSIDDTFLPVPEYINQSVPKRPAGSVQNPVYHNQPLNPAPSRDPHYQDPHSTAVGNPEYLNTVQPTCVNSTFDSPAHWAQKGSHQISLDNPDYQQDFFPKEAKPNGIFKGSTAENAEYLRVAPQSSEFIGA
Chain of exon 20 T790M mutant-type EGFR enzyme (P00533 25-1210 T790M): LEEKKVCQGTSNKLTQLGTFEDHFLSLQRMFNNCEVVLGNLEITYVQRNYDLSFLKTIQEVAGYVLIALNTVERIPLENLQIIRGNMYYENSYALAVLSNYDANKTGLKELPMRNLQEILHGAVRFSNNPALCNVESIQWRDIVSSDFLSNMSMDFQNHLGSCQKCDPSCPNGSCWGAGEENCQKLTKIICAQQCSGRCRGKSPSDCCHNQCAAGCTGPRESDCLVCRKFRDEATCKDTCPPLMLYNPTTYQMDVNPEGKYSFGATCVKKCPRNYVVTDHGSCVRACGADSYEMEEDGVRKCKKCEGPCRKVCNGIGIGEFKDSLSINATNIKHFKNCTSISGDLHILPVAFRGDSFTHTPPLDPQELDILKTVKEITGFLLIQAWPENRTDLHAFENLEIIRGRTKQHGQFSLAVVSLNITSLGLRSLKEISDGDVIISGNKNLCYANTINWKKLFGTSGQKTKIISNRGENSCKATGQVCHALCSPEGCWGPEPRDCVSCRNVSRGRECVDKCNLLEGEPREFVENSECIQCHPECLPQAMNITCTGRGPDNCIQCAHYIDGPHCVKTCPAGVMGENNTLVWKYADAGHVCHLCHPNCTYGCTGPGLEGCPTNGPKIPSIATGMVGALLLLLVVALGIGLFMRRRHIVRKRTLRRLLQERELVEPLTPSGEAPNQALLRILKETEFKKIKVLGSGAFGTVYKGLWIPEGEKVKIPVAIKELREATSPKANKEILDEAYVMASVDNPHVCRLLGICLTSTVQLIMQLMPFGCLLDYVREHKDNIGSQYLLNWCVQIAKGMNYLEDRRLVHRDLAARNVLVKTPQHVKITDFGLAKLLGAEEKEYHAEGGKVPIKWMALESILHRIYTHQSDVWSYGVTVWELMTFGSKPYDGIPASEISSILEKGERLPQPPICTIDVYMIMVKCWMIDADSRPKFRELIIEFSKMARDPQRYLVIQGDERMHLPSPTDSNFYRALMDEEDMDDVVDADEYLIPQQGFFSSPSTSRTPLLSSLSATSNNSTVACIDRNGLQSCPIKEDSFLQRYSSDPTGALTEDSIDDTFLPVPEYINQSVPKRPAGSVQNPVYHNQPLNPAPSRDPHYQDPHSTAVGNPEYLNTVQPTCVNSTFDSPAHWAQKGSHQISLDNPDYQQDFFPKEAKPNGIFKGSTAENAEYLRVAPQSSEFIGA

With `C=CC(=O)Nc1cc(Nc2nccc(-c3cn(C)c4c(F)cc(F)cc34)n2)c(OC)cc1N(C)CCN(C)C` [Example 89, N-(5-((4-(5,7-difluoro-1-methyl-1H-indol-3-yl)pyrimidin-2-yl)amino)-2-((2-(dimethylamino)ethyl)(methyl)amino)-4-methoxyphenyl)acrylamide], the IC50 stood at 8.57 nM in assay [1], 112 nM in assay [2] and 34.6 nM in assay [3]. The Selectivity of wild-type/mutant-type in assay [1] turned out to be 4.04.

`C=CC(=O)Nc1cc(Nc2nccc(-c3cn(C)c4cc(P(C)(C)=O)ccc34)n2)c(OC(F)F)cc1N(C)CCN(C)C` [Example 11, N-(4-(difluoromethoxy)-2-((2-(dimethylamino)ethyl)(methyl)amino)-5-((4-(6-(dimethylphosphoryl)-1-methyl-1H-indol-3-yl)pyrimidin-2-yl)amino)phenyl)acrylamide]: the IC50 amounted to 2.74 nM in assay [1], 24.6 nM in assay [2] and 64.1 nM in assay [3]. The Selectivity of wild-type/mutant-type in assay [1] was determined as 23.39.

On to `C=CC(=O)Nc1cc(Nc2ncc(C(F)(F)F)c(-n3ncc4cc(C#N)ccc43)n2)c(OC)cc1N(C)CCN(C)C` [Example 52, N-(5-((4-(5-cyano-1H-indazol-1-yl)-5-(trifluoromethyl)pyrimidin-2-yl)amino)-2-((2-(dimethylamino)ethyl)(methyl)amino)-4-methoxyphenyl)acrylamide], for which the IC50 in assay [1] amounted to 1.08 nM; in assay [2], 4.52 nM; in assay [3], 116 nM. The Selectivity of wild-type/mutant-type in assay [1] worked out at 107.1.

For `C=CC(=O)Nc1cc(Nc2nccc(-n3cnc4ccc(C#N)cc43)n2)c(OC)cc1N(C)CCN(C)C` [Example 62, N-(5-((4-(6-cyano-1H-benzo[d]imidazol-1-yl)pyrimidin-2-yl)amino)-2-((2-(dimethylamino)ethyl)(methyl)amino)-4-methoxyphenyl)acrylamide], the half-inhibitory concentration (IC50) in assay [1] was found to be 8.32 nM; in assay [2], 26.3 nM; in assay [3] it was 26.4 nM. In assay [1], the Selectivity of wild-type/mutant-type stood at 3.18.

Turning to `C=CC(=O)Nc1cc(Nc2nccc(-c3cn(C4CC4)c4ccccc34)n2)c(OC(F)F)cc1N(C)CCN(C)C` [Example 12, N-(5-((4-(1-cyclopropyl-1H-indol-3-yl)pyrimidin-2-yl)amino)-4-(difluoromethoxy)-2-((2-(dimethylamino)ethyl)(methyl)amino)phenyl)acrylamide], in assay [1], the IC50 was 0.32 nM and the Selectivity of wild-type/mutant-type is listed as 18.7. In assay [3], the IC50 came to 6.01 nM.

`C=CCn1cc(-c2ccnc(Nc3cc(NC(=O)C=C)c(N(C)CCN(C)C)cc3OC)n2)c2ccccc21` [Example 141, N-(5-((4-(1-allyl-1H-indol-3-yl)pyrimidin-2-yl)amino)-2-((2-(dimethylamino)ethyl)(methyl)amino)-4-methoxyphenyl)acrylamide]: the IC50 in assay [1] is 0.6 nM; in assay [2], 7.51 nM; in assay [3], 6.62 nM. For the same molecule, the Selectivity of wild-type/mutant-type in assay [1] is recorded as 11.1.

As for `C=CC(=O)Nc1cc(Nc2ncc(C(F)(F)F)c(-n3nc(OC)c4cc(Cl)ccc43)n2)c(OC)cc1N(C)CCN(C)C` [Example 109, N-(5-((4-(5-chloro-3-methoxy-1H-indazol-1-yl)-5-(trifluoromethyl)pyrimidin-2-yl)amino)-2-((2-(dimethylamino)ethyl)(methyl)amino)-4-methoxyphenyl)acrylamide], the IC50 was determined as 5.18 nM in assay [1] and 387 nM in assay [3]. Further, the Selectivity of wild-type/mutant-type in assay [1] amounted to 74.79.

Turning to `C=CC(=O)Nc1cc(Nc2nccc(-n3ncc4cc(OCC)ccc43)n2)c(OC)cc1N(C)CCN1CCCC1` [Example 133], the IC50 in assay [1] was 0.69 nM; in assay [2], 6.47 nM; in assay [3], 7.49 nM. Besides, the Selectivity of wild-type/mutant-type in assay [1] was determined as 10.86.

As for `C#Cc1ccc2c(-c3ccnc(Nc4cc(NC(=O)C=C)c(N(C)CCN(C)C)cc4OC)n3)cn(C)c2c1` [Example 95, N-(2-((2-(dimethylamino)ethyl)(methyl)amino)-5-((4-(6-ethynyl-1-methyl-1H-indol-3-yl)pyrimidin-2-yl)amino)-4-methoxyphenyl)acrylamide], the IC50 in assay [1] is 0.51 nM; in assay [2], 10.9 nM; in assay [3], 5.35 nM.

Turning to `C=CCn1cc(-c2ccnc(Nc3cc(NC(=O)C=C)c(N(C)CCNC)cc3OC)n2)c2ccccc21` [Example 126, N-(5-((4-(1-allyl-1H-indol-3-yl)pyrimidin-2-yl)amino)-4-methoxy-2-(methyl(2-(methylamino)ethyl)amino)phenyl)acrylamide], the results for the IC50 in assay [1], in assay [2] and in assay [3] were 1.51 nM, 34 nM and 15.4 nM, respectively. In assay [1], the Selectivity of wild-type/mutant-type amounted to 10.17.

Regarding `C=CC(=O)Nc1cc(Nc2ncc(Cl)c(-n3nc(OC)c4cc(Cl)ccc43)n2)c(OC)cc1N(C)CCN(C)C` [Example 108, N-(5-((5-chloro-4-(5-chloro-3-methoxy-1H-indazol-1-yl)pyrimidin-2-yl)amino)-2-((2-(dimethylamino)ethyl)(methyl)amino)-4-methoxyphenyl)acrylamide], in assay [1], it took 1.33 nM to reach half-maximal inhibition (IC50) and the Selectivity of wild-type/mutant-type amounted to 89.47. The molecule further displayed an IC50 in assay [3] of 119 nM.

For `C=CC(=O)Nc1cc(Nc2nccc(-c3cn(C4CC4)c4ccccc34)n2)c(OC)cc1N(C)CCN1CCOCC1` [Example 124, N-(5-((4-(1-cyclopropyl-1H-indol-3-yl)pyrimidin-2-yl)amino)-4-methoxy-2-(methyl(2-morpholinoethyl)amino)phenyl)acrylamide], the IC50 was determined as 4.18 nM in assay [1], 30.8 nM in assay [2] and 190 nM in assay [3]. In addition, the Selectivity of wild-type/mutant-type in assay [1] was 45.43.

On to `C=CC(=O)Nc1cc(Nc2nccc(-n3nc(C)c4ccc(OC)cc43)n2)c(OC)cc1N(C)CCN1CCCC1` [Example 132, N-(4-methoxy-5-((4-(6-methoxy-3-methyl-1H-indazol-1-yl)pyrimidin-2-yl)amino)-2-(methyl(2-(pyrrolidin-1-yl)ethyl)amino)phenyl)acrylamide], for which the IC50 in assay [1] was determined as 1.29 nM; in assay [2], 10.1 nM; in assay [3], 12 nM. The Selectivity of wild-type/mutant-type in assay [1] was determined as 9.34.

For `C=CC(=O)Nc1cc(Nc2nccc(-c3nn(C4CC4)c4ccccc34)n2)c(OC)cc1N(C)CCN(C)C` [Example 119, N-(5-((4-(1-cyclopropyl-1H-indazol-3-yl)pyrimidin-2-yl)amino)-2-((2-(dimethylamino)ethyl)(methyl)amino)-4-methoxyphenyl)acrylamide], the figures for the IC50 in assay [1], in assay [2] and in assay [3] were 0.47 nM, 2.32 nM and 4.34 nM, respectively. For the same molecule, in assay [1], the Selectivity of wild-type/mutant-type worked out at 9.23.

As for `C=CC(=O)Nc1cc(Nc2nccc(-n3ncc4cc(OC)ccc43)n2)c(OC)cc1N(C)CCN(C)C` [Example 43, N-(2-((2-(dimethylamino)ethyl)(methyl)amino)-4-methoxy-5-((4-(5-methoxy-1H-indazol-1-yl)pyrimidin-2-yl)amino)phenyl)acrylamide], in assay [1], 0.38 nM corresponded to half-maximal inhibition (IC50) and the Selectivity of wild-type/mutant-type is recorded as 9.8. In assay [3], this molecule registered an IC50 of 3.77 nM.

`C=CC(=O)Nc1cc(Nc2ncc(C(F)(F)F)c(-n3cnc4ccc(OC)cc43)n2)c(OC)cc1N(C)CCN(C)C` [Example 68, N-(2-((2-(dimethylamino)ethyl)(methyl)amino)-4-methoxy-5-((4-(6-methoxy-1H-benzo[d]imidazol-1-yl)-5-(trifluoromethyl)pyrimidin-2-yl)amino)phenyl)acrylamide]: in assay [1], the IC50 worked out at 0.99 nM and the Selectivity of wild-type/mutant-type turned out to be 193.03. This molecule registered an IC50 in assay [3] of 191 nM.

In the case of `C=CC(=O)Nc1cc(Nc2nccc(-n3cnc4cc(OC)ccc43)n2)c(OC)cc1N(C)CCN(C)C` [Example 59, N-(2-((2-(dimethylamino)ethyl)(methyl)amino)-4-methoxy-5-((4-(5-methoxy-1H-benzo[d]imidazol-1-yl)pyrimidin-2-yl)amino)phenyl)acrylamide], in assay [1], the IC50 came out at 0.35 nM and the Selectivity of wild-type/mutant-type is 12.7. In addition, in assay [3], the IC50 was found to be 4.44 nM.
